Test in all cases: JAK activity, Invitrogen SelectScreen Biochemical Kinase Profiling, Z'-LYTE
What all share (conditions): ATP concentration at Km

One experiment concerns the target JAK1 (Homo sapiens, UniProt P23458). As to the method: (§1) JAK activity was determined using Invitrogen's SelectScreen® Biochemical Kinase Profiling Service using the Z'-LYTE Screening Protocol and Assay Conditions (ATP concentration at Km).
In a further experiment the target is JAK2 (Homo sapiens, UniProt O60674). The procedure:
as §1

In the next experiment the target is T1, JAK3 (Homo sapiens, UniProt P52333).
T1 sequence (P52333 1-1124): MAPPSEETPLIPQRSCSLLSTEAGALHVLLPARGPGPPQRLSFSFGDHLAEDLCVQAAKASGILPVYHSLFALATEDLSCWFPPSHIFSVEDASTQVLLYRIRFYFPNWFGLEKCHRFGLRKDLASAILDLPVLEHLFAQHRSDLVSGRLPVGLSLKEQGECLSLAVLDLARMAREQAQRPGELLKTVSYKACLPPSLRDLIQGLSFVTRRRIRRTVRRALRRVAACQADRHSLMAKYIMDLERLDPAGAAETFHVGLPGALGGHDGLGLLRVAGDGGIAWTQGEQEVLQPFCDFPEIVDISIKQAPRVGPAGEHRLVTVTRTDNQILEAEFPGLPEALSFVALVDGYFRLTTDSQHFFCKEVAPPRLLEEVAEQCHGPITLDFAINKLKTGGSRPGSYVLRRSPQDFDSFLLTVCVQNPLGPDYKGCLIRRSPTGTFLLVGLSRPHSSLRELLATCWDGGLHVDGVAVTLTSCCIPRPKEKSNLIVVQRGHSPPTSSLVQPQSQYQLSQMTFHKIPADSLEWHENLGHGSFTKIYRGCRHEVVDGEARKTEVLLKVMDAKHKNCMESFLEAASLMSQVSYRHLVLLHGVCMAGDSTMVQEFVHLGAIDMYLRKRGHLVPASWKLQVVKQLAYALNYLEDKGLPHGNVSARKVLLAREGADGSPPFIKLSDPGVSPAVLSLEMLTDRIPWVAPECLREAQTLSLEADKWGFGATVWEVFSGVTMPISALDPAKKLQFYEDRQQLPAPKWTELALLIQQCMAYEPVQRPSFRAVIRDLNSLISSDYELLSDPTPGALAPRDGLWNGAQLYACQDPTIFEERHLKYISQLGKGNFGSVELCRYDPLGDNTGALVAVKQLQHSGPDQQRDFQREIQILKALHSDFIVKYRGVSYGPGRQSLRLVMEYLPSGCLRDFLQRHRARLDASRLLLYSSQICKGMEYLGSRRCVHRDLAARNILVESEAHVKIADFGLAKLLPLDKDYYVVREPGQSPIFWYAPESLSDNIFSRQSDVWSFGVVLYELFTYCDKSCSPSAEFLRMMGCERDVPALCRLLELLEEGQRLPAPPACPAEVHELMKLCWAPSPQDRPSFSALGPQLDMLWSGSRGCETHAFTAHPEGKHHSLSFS
The procedure:
as §1

Sequence of JAK2 (O60674 whole entry): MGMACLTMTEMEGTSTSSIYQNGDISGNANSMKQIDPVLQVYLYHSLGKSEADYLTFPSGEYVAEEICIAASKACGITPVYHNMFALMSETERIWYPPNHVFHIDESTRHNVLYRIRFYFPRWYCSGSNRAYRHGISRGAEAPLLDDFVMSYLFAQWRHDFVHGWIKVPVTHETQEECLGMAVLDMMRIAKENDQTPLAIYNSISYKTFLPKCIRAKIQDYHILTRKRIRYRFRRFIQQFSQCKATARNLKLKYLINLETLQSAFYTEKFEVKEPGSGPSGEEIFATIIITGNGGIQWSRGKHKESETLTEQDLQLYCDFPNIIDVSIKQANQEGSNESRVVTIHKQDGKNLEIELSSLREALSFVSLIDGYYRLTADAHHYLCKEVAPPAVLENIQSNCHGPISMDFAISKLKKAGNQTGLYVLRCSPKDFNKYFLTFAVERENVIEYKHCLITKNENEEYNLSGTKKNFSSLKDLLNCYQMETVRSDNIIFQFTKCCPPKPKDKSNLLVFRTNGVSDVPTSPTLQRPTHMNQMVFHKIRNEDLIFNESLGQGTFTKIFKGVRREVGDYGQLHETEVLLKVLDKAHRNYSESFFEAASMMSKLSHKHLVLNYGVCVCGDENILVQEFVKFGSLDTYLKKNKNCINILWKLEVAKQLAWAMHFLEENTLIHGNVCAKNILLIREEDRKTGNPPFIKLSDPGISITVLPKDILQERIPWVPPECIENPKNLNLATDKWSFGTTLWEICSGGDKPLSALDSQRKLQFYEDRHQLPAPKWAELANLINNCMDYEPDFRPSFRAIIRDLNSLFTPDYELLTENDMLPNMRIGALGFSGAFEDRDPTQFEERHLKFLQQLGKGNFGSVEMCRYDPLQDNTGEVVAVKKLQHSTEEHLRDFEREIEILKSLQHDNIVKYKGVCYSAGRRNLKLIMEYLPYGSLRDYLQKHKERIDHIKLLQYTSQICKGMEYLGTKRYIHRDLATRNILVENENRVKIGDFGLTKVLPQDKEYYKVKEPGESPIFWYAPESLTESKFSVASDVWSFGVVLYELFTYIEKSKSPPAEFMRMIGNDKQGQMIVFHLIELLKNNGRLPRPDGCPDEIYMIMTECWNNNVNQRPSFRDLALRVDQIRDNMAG
Sequence of JAK1 (P23458 whole entry): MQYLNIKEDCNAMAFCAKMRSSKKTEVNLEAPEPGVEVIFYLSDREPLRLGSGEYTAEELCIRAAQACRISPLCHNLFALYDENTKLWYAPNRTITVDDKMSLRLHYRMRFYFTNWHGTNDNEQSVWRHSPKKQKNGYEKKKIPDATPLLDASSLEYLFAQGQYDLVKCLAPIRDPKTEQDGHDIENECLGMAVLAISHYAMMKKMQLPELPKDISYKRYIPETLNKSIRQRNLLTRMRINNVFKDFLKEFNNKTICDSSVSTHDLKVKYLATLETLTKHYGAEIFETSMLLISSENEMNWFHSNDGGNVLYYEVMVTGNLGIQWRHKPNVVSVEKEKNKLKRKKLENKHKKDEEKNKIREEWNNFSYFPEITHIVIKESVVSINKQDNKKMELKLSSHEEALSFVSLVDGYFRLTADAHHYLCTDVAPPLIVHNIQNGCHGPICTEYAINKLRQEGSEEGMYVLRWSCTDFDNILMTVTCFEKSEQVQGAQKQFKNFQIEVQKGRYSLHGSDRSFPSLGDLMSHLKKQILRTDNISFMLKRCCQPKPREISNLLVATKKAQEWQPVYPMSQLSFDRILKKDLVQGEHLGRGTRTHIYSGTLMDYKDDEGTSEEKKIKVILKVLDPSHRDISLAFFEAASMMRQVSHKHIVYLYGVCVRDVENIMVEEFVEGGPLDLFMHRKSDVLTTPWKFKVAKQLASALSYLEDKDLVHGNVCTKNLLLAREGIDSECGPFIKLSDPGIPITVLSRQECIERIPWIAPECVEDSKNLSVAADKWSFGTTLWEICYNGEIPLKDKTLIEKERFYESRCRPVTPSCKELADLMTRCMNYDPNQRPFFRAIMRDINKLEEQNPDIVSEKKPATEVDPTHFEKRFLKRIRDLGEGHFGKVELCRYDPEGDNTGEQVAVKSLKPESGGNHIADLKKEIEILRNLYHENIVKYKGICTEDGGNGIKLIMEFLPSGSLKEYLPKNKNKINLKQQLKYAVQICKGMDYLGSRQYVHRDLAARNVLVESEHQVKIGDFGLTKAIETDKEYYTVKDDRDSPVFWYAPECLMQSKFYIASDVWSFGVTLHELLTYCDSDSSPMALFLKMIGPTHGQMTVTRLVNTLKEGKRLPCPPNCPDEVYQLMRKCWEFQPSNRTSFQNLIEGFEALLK

For the molecule `N#CCC(C1CCCC1)n1cc2c(n1)C(=O)c1c[nH]c3nccc-2c13` (stereo not drawn) [Example 1, 3-cyclopentyl-3-{7-oxo-4,5,10,12-tetraazatetracyclo[6.6.1.0^2,6.0^11,15]pentadeca-1(15),2,5,8,11,13-hexaen-4-yl}propanenitrile], the IC50 is 10 to 100 nM on JAK1, < 10 nM against JAK2 and > 100 nM on JAK3.
The like results for `N#CC[C@H](C1CCCC1)n1cc2c(n1)C(=O)c1c[nH]c3nccc-2c13` [Example 4, (3R)-3-cyclopentyl-3-{7-oxo-4,5,10,12-tetraazatetracyclo[6.6.1.0^2,6.0^11,15]pentadeca-1(15),2,5,8,11,13-hexaen-4-yl}propanenitrile] were, in that order, 10 to 100 nM, < 10 nM and > 100 nM.
`N#CCC(C1CCCC1)n1ncc2c1C(=O)c1c[nH]c3nccc-2c13` (stereo not drawn) [Example 2, 3-cyclopentyl-3-{7-oxo-4,5,10,12-tetraazatetracyclo[6.6.1.0^2,6.0^11,15]pentadeca-1(15),2(6),3,8,11,13-hexaen-5-yl}propanenitrile]: the IC50 against JAK1 is > 100 nM; at JAK2, 10 to 100 nM; on JAK3 it was > 100 nM.

The record behind these values is US9440977B2, “Compositions, uses and methods for their preparation” (priority 2013, dated 2016).
